Test results as given in patent US20170283453A1, “COFACTOR ANALOGUES FOR METHYLTRANSFERASES” (KATHOLIEKE UNIVERSITEIT LEUVEN, priority 2014, published 2017).
Counter-ions that a name gives are not always drawn.

Columns and labels:
[1] = target: M.TaqI DNA methyltransferase (Thermus aquaticus, UniProt P14385); test: Restriction protection assay after M.TaqI-directed DNA modification (agarose gel); type: biochemical; conditions: pUC19 DNA, Cutsmart buffer, 60° C., 1 hour; restriction enzyme TaqaI 1 hour; Ethidium bromide
Sequence of M.TaqI DNA methyltransferase (P14385 whole entry): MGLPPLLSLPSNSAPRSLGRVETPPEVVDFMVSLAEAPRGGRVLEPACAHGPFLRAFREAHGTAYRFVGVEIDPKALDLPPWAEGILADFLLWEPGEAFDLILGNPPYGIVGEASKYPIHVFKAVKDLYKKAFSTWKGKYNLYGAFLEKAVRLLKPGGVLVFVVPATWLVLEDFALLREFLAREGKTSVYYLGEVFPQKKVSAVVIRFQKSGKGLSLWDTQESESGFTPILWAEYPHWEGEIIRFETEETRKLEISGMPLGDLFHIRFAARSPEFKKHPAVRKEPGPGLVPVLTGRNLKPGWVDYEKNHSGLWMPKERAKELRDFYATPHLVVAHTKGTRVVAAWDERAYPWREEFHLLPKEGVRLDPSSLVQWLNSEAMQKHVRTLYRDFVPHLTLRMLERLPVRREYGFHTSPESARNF
Description: Adenine-N6 DNA modification by M.TaqI DNA methyltransferase: […] DNA methyltransferase targets the four-base recognition sequence 5′-TCGA-3′ and modifies the underlined adenine residue at the N6-position and was combined with (6-Azido-hex-2-yne)(5′-Deoxyadenosyl)-(L-Cysteine)sulfonium salt (see example 9 for preparation). The methyltransferase enzyme and cofactors were incubated with pUC19 DNA in “Cutsmart buffer” at 60° C. for 1 hour. To determine if protection occurred the DNA was incubated with the corresponding restriction enzyme (TaqaI) for 1 hour. Afterwards, the remaining proteins were digested with Proteinase K. The DNA samples are then placed on an agarose gel and visualized with Ethidium bromide (FIG. 1).
Adenine-N6 DNA modification by M.TaqI DNA methyltransferase: […] DNA methyltransferase targets the four-base recognition sequence 5′-TCGA-3′ and modifies the underlined adenine residue at the N6-position and was combined with Rhodamine sulfonium salt (see example 12 for preparation). The methyltransferase enzyme and cofactors were incubated with pUC19 DNA in “Cutsmart buffer” at 60° C. for 1 hour. To determine if protection occurred the DNA was incubated with the corresponding restriction enzyme (TaqaI) for 1 hour. […]

[2] = tested on: M.MpeI DNA methyltransferase; test: Restriction protection assay after M.MpeI-directed DNA modification (agarose gel); type: biochemical; conditions: pUC19 DNA, Cutsmart buffer, 60° C., 1 hour; restriction enzyme HhaI 1 hour; Ethidium bromide
Description: Cytosine DNA modification by M.MpeI DNA methyltransferase: […] DNA methyltransferase targets the two-base recognition sequence 5′-CG-3′ and modifies the underlined cytosine residue and was combined with (8-Azido-oct-2-ene)(5′-Deoxyadenosyl)-(L-Cysteine)sulfonium salt (see example 9 for preparation). The methyltransferase enzyme and cofactors were incubated with pUC19 DNA in “Cutsmart buffer” at 60° C. for 1 hour. To determine if protection occurred the DNA was incubated with the corresponding restriction enzyme (HhaI) for 1 hour. Afterwards, the remaining proteins were digested with Proteinase K. The DNA samples are then placed on an agarose gel and visualized with Ethidium bromide (FIG. 3).

plasmid DNA = test: Super resolution microscopy of fluorescently labeled DNA; conditions: FIG. 5 panel C; DNA spin coated on poly-L-lysine coated cover slips
Description: Adenine-N6 DNA modification by M.TaqI DNA methyltransferase: […] DNA methyltransferase targets the four-base recognition sequence 5′-TCGA-3′ and modifies the underlined adenine residue at the N6-position and was combined with Rhodamine sulfonium salt (see example 12 for preparation). The methyltransferase enzyme and cofactors were incubated with pUC19 DNA in “Cutsmart buffer” at 60° C. for 1 hour. To determine if protection occurred the DNA was incubated with the corresponding restriction enzyme (TaqaI) for 1 hour. Afterwards, the remaining proteins were digested with Proteinase K. DNA samples are then placed on an agarose gel and visualized with Ethidium bromide (FIG. 4).
Fluorescent DNA was purified using DNA Cleaner & Concentrator 5 columns (Zymo Research), and the DNA was spin coated on poly-L-lysine coated cover slips and used directly for microscopy studies. (FIG. 5)

[N-]=[N+]=NCCCC#CC[S+](C[C@H](N)C(=O)O)C[C@H]1O[C@@H](n2cnc3c(N)ncnc32)C(O)C1O (stereo partly drawn) [(6-Azido-hex-2-yne)(5′-Deoxyadenosyl)-(L-Cysteine)sulfonium Salt]
Protection of DNA against cutting by restriction enzyme (band pattern on agarose gel) [1]: 1 strong band, corresponding to uncut DNA

[N-]=[N+]=NCCCCCC=CC[S+](C[C@H](N)C(=O)O)C[C@H]1O[C@@H](n2cnc3c(N)ncnc32)[C@H](O)[C@@H]1O (stereo partly drawn) [(8-Azido-oct-2-ene)(5′-Deoxyadenosyl)-(L-Cysteine)sulfonium salt]
Protection of DNA against cutting by restriction enzyme (band pattern on agarose gel) [2]: 1 strong band, corresponding to uncut DNA

CCN(CC)c1ccc2c(-c3ccccc3C(=O)N(C)CCC(=O)NCCCCC/C=C/C[S+](C[C@H](N)C(=O)O)C[C@H]3O[C@@H](n4cnc5c(N)ncnc54)[C@@H](O)C3O)c3ccc(=[N+](CC)CC)cc-3oc2c1 (stereo partly drawn) [Rhodamine sulfonium salt]
Colocalization of the dye with a DNA intercalating dye (fluorescent DNA labeling) (plasmid DNA): successful fluorescent DNA labeling
